How the values were obtained:
[1] = system: sugar beet; experiment: Test B pre/postemergence sugar beet; assay type: in vivo, Beta vulgaris; details: for Plant response rating, Sugarbeets: scale of 0 to 10 where 0 is no effect and 10 is complete control
Method in brief: (§1)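 Herbicidal effect was estimated by eye on a ten-point control scale after plants spent twelve to sixteen days in a greenhouse following soil or foliar treatment. Foliar sprays targeted plants at one to four leaves; all doses were formulated in a non-phytotoxic solvent with surfactant.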

[2] = system: wild oat; experiment: Test B pre/postemergence wild oat; assay type: in vivo, Avena fatua; details: for Plant response rating, Wild oats: scale of 0 to 10 where 0 is no effect and 10 is complete control
Method in brief: as §1

[3] = system: pigweed; experiment: Test B pre/postemergence pigweed; assay type: in vivo, Amaranthus retroflexus; details: for Plant response rating, Redroot pigweed: scale of 0 to 10 where 0 is no effect and 10 is complete control
Method in brief: as §1

[4] = system: giant foxtail; experiment: Test B pre/postemergence giant foxtail; assay type: in vivo, Setaria faberii
Method in brief: as §1

[5] = system: surinam grass; experiment: Test B pre/postemergence surinam grass; assay type: in vivo, Brachiaria decumbens
Method in brief: as §1

[6] = system: soybean; experiment: Test B pre/postemergence soybean; assay type: in vivo, Glycine max; details: for Plant response rating, Soybean: scale of 0 to 10 where 0 is no effect and 10 is complete control
Method in brief: as §1

[7] = system: velvetleaf; experiment: Test B pre/postemergence velvetleaf; assay type: in vivo, Abutilon theophrasti; details: for Plant response rating, Velvetleaf: scale of 0 to 10 where 0 is no effect and 10 is complete control
Method in brief: as §1

[8] = system: bamyardgrass; experiment: Test B flood test barnyardgrass; assay type: in vivo, Echinochloa crus-galli
Method in brief: (§2)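 Each value is a visual injury score relative to controls, with 10 meaning complete control and 0 no effect. Evaluation took place twelve to sixteen days after the 2-leaf-stage plants were treated and kept in the greenhouse.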

[9] = system: wheat; experiment: Test B pre/postemergence wheat; assay type: in vivo, Triticum aestivum; details: for Plant response rating, Wheat: scale of 0 to 10 where 0 is no effect and 10 is complete control
Method in brief: as §1

[10] = system: morningglory; experiment: Test B pre/postemergence morningglory; assay type: in vivo, Ipomoea hederacea; details: for Plant response rating, Morningglory: scale of 0 to 10 where 0 is no effect and 10 is complete control
Method in brief: as §1

[11] = system: blackgrass; experiment: Test B pre/postemergence blackgrass; assay type: in vivo, Alopecurus myosuroides
Method in brief: as §1

[12] = system: cocklebur; experiment: Test B pre/postemergence cocklebur; assay type: in vivo, Xanthium strumarium
Method in brief: as §1

[13] = system: crabgrass; experiment: Test B pre/postemergence crabgrass; assay type: in vivo, Digitaria sanguinalis
Method in brief: as §1

[14] = system: corn; experiment: Test B pre/postemergence corn; assay type: in vivo, Zea mays
Method in brief: as §1

[15] = system: rice; experiment: Test B flood test rice; assay type: in vivo, Oryza sativa
Method in brief: as §2

[16] = system: duck salad; experiment: Test B flood test duck salad; assay type: in vivo, Heteranthera limosa
Method in brief: as §2

[17] = Postemergence, Rate 250 g/ha, scale 0 to 10
[18] = Preemergence, Rate 250 g/ha, scale 0 to 10, 0 is no effect, 10 is complete control
[19] = Preemergence, Rate 500 g/ha, scale 0 to 10, 0 is no effect, 10 is complete control
[20] = Rate 62 g/ha, Postemergence, scale 0 to 10 (0 no effect, 10 complete control)
[21] = Rate 125 g/ha, Postemergence, scale 0 to 10, 0 is no effect, 10 is complete control
[22] = Postemergence, Rate 500 g/ha, scale of 0 to 10 where 0 is no effect and 10 is complete control
[23] = Preemergence, Rate 62 g/ha, scale of 0 to 10 where 0 is no effect and 10 is complete control
[24] = Preemergence, Rate 125 g/ha, scale of 0 to 10 where 0 is no effect and 10 is complete control
[25] = Rate 62 g/ha, flood test species, Pre-emergence, visual evaluation after twelve to sixteen days
[26] = Rate 125 g/ha, under heading Pre-emergence, flood test species, visual evaluation after twelve to sixteen days
[27] = Rate 250 g/ha, Pre-emergence (flood test species), scale 0 to 10, 0 is no effect, 10 is complete control
[28] = Rate 500 g/ha, Pre-emergence, flood test species, scale 0 to 10 (0 no effect, 10 complete control)

CCOC(=O)CC(C(=O)OCC)n1c(=O)on(C(=O)N(c2ccc(F)cc2F)C(C)C)c1=O (centres unmarked) [Compound 465]
Sugarbeets plant response rating [1, 17]: 0
Plant response rating, Sugarbeets ([1]; Preemergence, Rate 62 g/ha): 0
Plant response rating, Sugarbeets ([1]; Preemergence, Rate 125 g/ha): 2
Sugarbeets plant response rating [1, 18]: 3
Sugarbeets plant response rating [1, 19]: 5
Sugarbeets plant response rating [1, 20]: 0
Sugarbeets plant response rating [1, 21]: 0
Wild oats plant response rating [2, 17]: 0
Plant response rating, Wild oats ([2]; Preemergence, Rate 62 g/ha): 0
Plant response rating, Wild oats ([2]; Preemergence, Rate 125 g/ha): 0
Wild oats plant response rating [2, 18]: 2
Wild oats plant response rating [2, 19]: 3
Wild oats plant response rating [2, 20]: 0
Wild oats plant response rating [2, 21]: 0
Redroot pigweed plant response rating [3, 17]: 0
Plant response rating, Redroot pigweed ([3]; Preemergence, Rate 62 g/ha): 3
Plant response rating, Redroot pigweed ([3]; Preemergence, Rate 125 g/ha): 9
Redroot pigweed plant response rating [3, 18]: 9
Redroot pigweed plant response rating [3, 19]: 10
Redroot pigweed plant response rating [3, 20]: 0
Redroot pigweed plant response rating [3, 21]: 0
Giant foxtail plant response rating [4, 17]: 5
Giant foxtail plant response rating [4, 22]: 9
Plant response rating, Giant foxtail [4, 23]: 7
Plant response rating, Giant foxtail [4, 24]: 10
Giant foxtail plant response rating [4, 18]: 10
Giant foxtail plant response rating [4, 19]: 10
Giant foxtail plant response rating [4, 20]: 2
Giant foxtail plant response rating [4, 21]: 5
B. signalgrass plant response rating ([5]; Postemergence, Rate 250 g/ha, scale 0 to 10, 0 no effect, 10 complete control): 0
B. signalgrass plant response rating [5, 22]: 0
Plant response rating, B. signalgrass [5, 23]: 0
Plant response rating, B. signalgrass [5, 24]: 2
B. signalgrass plant response rating [5, 18]: 3
B. signalgrass plant response rating [5, 19]: 5
B. signalgrass plant response rating [5, 20]: 0
B. signalgrass plant response rating [5, 21]: 0
Soybean plant response rating [6, 17]: 1
Plant response rating, Soybean ([6]; Preemergence, Rate 62 g/ha): 0
Plant response rating, Soybean ([6]; Preemergence, Rate 125 g/ha): 0
Soybean plant response rating [6, 18]: 7
Soybean plant response rating [6, 20]: 1
Soybean plant response rating [6, 21]: 1
Velvetleaf plant response rating [7, 17]: 3
Plant response rating, Velvetleaf ([7]; Preemergence, Rate 62 g/ha): 0
Plant response rating, Velvetleaf ([7]; Preemergence, Rate 125 g/ha): 3
Velvetleaf plant response rating [7, 18]: 7
Velvetleaf plant response rating [7, 19]: 8
Velvetleaf plant response rating [7, 20]: 0
Velvetleaf plant response rating [7, 21]: 0
Plant response rating, Barnyardgrass (0 to 10 scale, 0 is no effect, 10 is complete control) [8, 25]: 0
Barnyardgrass plant response rating (0 to 10 scale, 0 is no effect, 10 is complete control) [8, 26]: 0
Barnyardgrass plant response rating [8, 27]: 0
Barnyardgrass plant response rating [8, 28]: 0
Wheat plant response rating [9, 17]: 0
Plant response rating, Wheat ([9]; Preemergence, Rate 62 g/ha): 0
Plant response rating, Wheat ([9]; Preemergence, Rate 125 g/ha): 0
Wheat plant response rating [9, 18]: 0
Wheat plant response rating [9, 19]: 0
Wheat plant response rating [9, 20]: 0
Wheat plant response rating [9, 21]: 0
Morningglory plant response rating [10, 17]: 2
Plant response rating, Morningglory ([10]; Preemergence, Rate 62 g/ha): 0
Plant response rating, Morningglory ([10]; Preemergence, Rate 125 g/ha): 0
Morningglory plant response rating [10, 18]: 0
Morningglory plant response rating [10, 19]: 0
Morningglory plant response rating [10, 20]: 0
Morningglory plant response rating [10, 21]: 1
Blackgrass plant response rating [11, 17]: 6
Blackgrass plant response rating [11, 22]: 8
Plant response rating, Blackgrass [11, 23]: 2
Plant response rating, Blackgrass [11, 24]: 3
Blackgrass plant response rating [11, 18]: 6
Blackgrass plant response rating [11, 19]: 10
Blackgrass plant response rating [11, 20]: 0
Blackgrass plant response rating [11, 21]: 2
Cocklebur plant response rating [12, 17]: 0
Cocklebur plant response rating [12, 22]: 0
Plant response rating, Cocklebur [12, 23]: 0
Plant response rating, Cocklebur [12, 24]: 0
Cocklebur plant response rating [12, 18]: 0
Cocklebur plant response rating [12, 19]: 0
Cocklebur plant response rating [12, 20]: 0
Cocklebur plant response rating [12, 21]: 0
Crabgrass plant response rating [13, 17]: 5
Crabgrass plant response rating [13, 22]: 8
Plant response rating, Crabgrass [13, 23]: 2
Crabgrass plant response rating [13, 18]: 4
Crabgrass plant response rating [13, 19]: 10
Crabgrass plant response rating [13, 20]: 1
Crabgrass plant response rating [13, 21]: 1
Corn plant response rating [14, 17]: 0
Corn plant response rating [14, 22]: 2
Plant response rating, Corn [14, 23]: 0
Plant response rating, Corn [14, 24]: 0
Corn plant response rating [14, 18]: 0
Corn plant response rating [14, 19]: 2
Corn plant response rating [14, 20]: 0
Corn plant response rating [14, 21]: 0
Plant response rating, Rice (0 to 10 scale, 0 is no effect, 10 is complete control) [15, 25]: 0
Rice plant response rating (0 to 10 scale, 0 is no effect, 10 is complete control) [15, 26]: 0
Rice plant response rating [15, 27]: 0
Rice plant response rating [15, 28]: 0
Plant response rating, Ducksalad (0 to 10 scale, 0 is no effect, 10 is complete control) [16, 25]: 0
Ducksalad plant response rating (0 to 10 scale, 0 is no effect, 10 is complete control) [16, 26]: 0
Ducksalad plant response rating [16, 27]: 0
Ducksalad plant response rating [16, 28]: 0
